The record followed here is PMC9413440, “An Iterative Approach Guides Discovery of the FabI Inhibitor Fabimycin, a Late-Stage Antibiotic Candidate with In Vivo Efficacy against Drug-Resistant Gram-Negative Infections” (ACS Central Science, 2022).

For one series, the system named is E. coli MG1655. Kind of series: Whole-cell accumulation assay (LC-MS/MS). In kind it is cell-based, Escherichia coli. The method, then: (§1) II. Materials and Methods for Biological Experiments
S. aureus ATCC 29213 and E. coli MG1655 were obtained from the American Type Culture Collection (ATCC). E. coli BW25113 and E. coli JW5503 were obtained from the Keio Collection. AR-bank strains were obtained from the Centers for Disease Control and Prevention and FDA Antibiotic Resistance Isolate Bank. […]
The accumulation assay4 was performed in triplicate with each batch containing tetracycline as a positive control. E. coli MG1655 was used in these experiments. For each replicate, 2.5 mL of an overnight culture of E. coli was diluted into 250 mL of fresh Luria Bertani (LB) broth (Lennox) and grown at 37 °C with shaking to an optical density (OD600) of 0.55. The bacteria were pelleted at 3220 r.c.f. for 10 min at 4 °C and the supernatant was discarded. The pellets were resuspended in 40 mL of phosphate buffered saline (PBS) and pelleted as before, and the supernatant discarded. […] The number of colony-forming units (CFUs) was determined by a calibration curve. […] Supernatants were analyzed by LC-MS/MS.
Samples were analyzed with the […] LC-MS/MS system (AB Sciex) with a 1200 series HPLC system (Agilent Technologies) including a degasser, an autosampler, and a binary pump. […]
The source temperature was 450 °C. […] Multiple reaction monitoring was used for quantification. […] All compounds evaluated in biological assays were ≥95% pure.

The format of series [1] is in vitro ADME. On the procedure:
Forward 5’-GGG-GCC-AGC-GTT-TCT-TTT-TC-3‘ Parker, 20203
Reverse 5’-AAA-CAT-GGA-GAC-GGT-GCT-GG
Forward 5’-GTG-AGA-TCG-GCA-TGA-CAC-AA-3’ Lin, 20179
Reverse 5’-CTG-AAG-TCC-GCT-ACC-GTT-AT-3’
Compound stability in mammalian plasma
Candidate drugs were incubated with plasma and parent drug levels were monitored at various time points (generally t=0, 10, 20, 30, and 60 minutes) to determine the drug’s half-life in the presence of the chosen system. Each drug is tested in duplicate. Compounds were diluted from 10 mM DMSO stocks to 1 µM in a 100 mM pH 7.4 phosphate buffer and incubated at 37 °C with 0.5 mg/mL of human, rat, or mouse plasma (BioreclamationIVT, Baltimore, MD). Time points were collected at 0 min (after addition of drug), 15 min, 30 min, 60 min, and 120 min following quenching with an equal volume of acetonitrile. The supernatant was collected after centrifugation, and the sample analyzed by LC-MS where the percentage of compound remaining is plotted vs time to determine the drug’s half-life.
Compound plasma protein binding
Candidate drugs were incubated with plasma and parent drug levels are monitored after 4 hours to determine the drug’s free concentration in the presence of the plasma proteins. The standard assay involves equilibrium dialysis, in which compound is allowed to equilibrate between a protein-containing compartment from a protein-free compartment. Each

For the next series, the system named is E. coli AR-0055. The series is described as follows: MIC against infective strain of UTI model. In kind it is cell-based. The note with it: Escherichia coli, AR0055; extensively drug-resistant, carbapenem-resistant E. coli of the UTI model (AR-0055). The method, then: as §1
S. aureus ATCC 29213 and E. coli MG1655 were obtained from the American Type Culture Collection (ATCC). E. coli BW25113 and E. coli JW5503 were obtained from the Keio Collection. AR-bank strains were obtained from the Centers for Disease Control and Prevention and FDA Antibiotic Resistance Isolate Bank.
Antimicrobial susceptibility tests
Susceptibility testing was performed in biological triplicate, unless noted otherwise, using the micro-dilution broth method as outlined by the Clinical and Laboratory Standards Institute. Bacteria were cultured with cation-adjusted Mueller Hinton broth (Sigma Aldrich, catalogue number: 90922). […]
NH3: m/z 391.2 → 171.0. Fabimycin: m/z 405.3 → 145.3. Power analysis was not used to determine the number of replicates. Error bars represent the standard error of the mean of three biological replicates. All compounds evaluated in biological assays were ≥95% pure.

Converted amounts (≈) assume the structure as drawn. Where two headings read alike, the source gives them in different places.

With `Cc1c(CN(C)C(=O)/C=C/c2cnc3c(c2)CCCC(=O)N3)oc2ccccc12` [compound 10], the whole-cell accumulation result with E. coli MG1655 was “reduced whole-cell accumulation”.

As usually defined, the MIC is the least concentration at which growth counts as inhibited. With `Cc1c(CN(C)C(=O)/C=C/c2cnc3c(c2)CC[C@H](N)C(=O)N3)oc2ccccc12` [fabimycin], the stability in plasma result in series [1] (human) is reported as “excellent stability”; in series [1] (mouse) it was “considerable instability”; in series [1] (rat), “excellent stability”. In the series with E. coli AR-0055, this compound came in with an MIC of 2 µg/mL (≈ 4.94 µM).
